# Key:
# [1] = system: α2δ subunit of calcium channels; conditions: Bryans et al. (1999) Med. Res. Rev. 19:149-177; cited from earlier work
# [2] = preclinical and clinical studies; broad range of oral doses; cited from earlier work
# SCI rats = conditions: Cheng et al., 1995, Brain Res. 678:40-48; cited from earlier work
# [3] = system: female rats, dilute acetic acid irritated bladder; assay: Dilute acetic acid model, acute anesthetized rats: bladder capacity by cystometry; format: in vivo, rat; conditions: Example 1; for effectiveness of drug alone on bladder capacity: i.v.; for effective dose range of the drug in combination versus the drug alone (isobologram): individual animals, return to 31% of saline control, FIG. 4
# Method: (§1) Urethane anesthetized (1.2 g/kg) normal female rats were utilized in this study.
# (§2) Animals were dosed by volume of injection=body weight in kg.
# Animal Preparation: Female rats (250-300 g body weight) were anesthetized with urethane (1.2 g/kg) and a saline-filled catheter (PE-50) was inserted into the jugular vein for intravenous drug administration. […] The abdominal cavity was moistened with saline and closed by covering with a thin plastic sheet in order to maintain access to the bladder for emptying purposes. Fine silver or stainless steel wire electrodes were inserted into the external urethral sphincter (EUS) percutaneously for electromyography (EMG).
# Following 30 minutes of AA infusion, 3 vehicle injections were made at 20 minute intervals to determine vehicle effects, if any.
# P<0.050 was considered significant.
# as §1, §2
# [4] = system: female cats, dilute acetic acid irritated bladder; assay: Dilute acetic acid model in cats: bladder capacity and voiding efficiency; format: in vivo; conditions: cat; 30 mg/kg dose alone
# Method: Alpha-chloralose anesthetized (50-100 mg/kg) normal female cats (2.5-3.5 kg; Harlan) were utilized in this study.
# Female cats (2.5-3.5 kg; Harlan) had their food removed the night before the experiment. The following morning, the cat was anesthetized with isoflurane and prepped for surgery using aseptic technique. Polyethylene catheters were surgically placed to permit the measurement of bladder pressure, urethral pressure, arterial pressure, respiratory rate as well as for the delivery of drugs. Fine wire electrodes were implanted alongside the external urethral anal sphincter. Following surgery, the cats were slowly switched from the gas anesthetic isoflurane (2-3.5%) to alpha-chloralose (50-100 mg/kg). During control cystometry, saline was slowly infused into the bladder (0.5-1.0 ml/min) for 1 hour. The control cystometry was followed by 0.5% acetic acid in saline for the duration of the experiment. After assessing the cystometric variables under these baseline conditions, the effects of test drug(s) on micturition were determined via a 3-5 point dose response protocols.
# For the purposes of assessing synergy using all of the data simultaneously, bladder capacity data for each animal were normalized to % Recovery from Irritation, and this index was used as the measure of efficacy. […]
structure (smiles),measurement,setting,value
"CC(C)C[C@H](CN)CC(=O)O [Pregabalin, (S)-(3-aminomethyl)-5-methylhexanoic acid]",binding affinity for the α2δ subunit of calcium channels relative to gabapentin,[1],even higher binding affinity
CC(OC(=O)NCC1(CC(=O)O)CCCCC1)OC(=O)C(C)C (stereo not drawn) [XP13512],blood levels of gabapentin after oral prodrug,[2],dose proportional blood levels of gabapentin
COc1cc(CNC(=O)CCCC/C=C/C(C)C)ccc1O [capsaicin],bladder capacity to voiding,SCI rats,not effect bladder capacity to voiding
same,bladder instability,SCI rats,reduce bladder instability
"NCC1(CC(=O)O)CCCCC1 [gabapentin, 1-(aminomethyl)cyclohexaneacetic acid]",effectiveness of drug alone on bladder capacity,[3],modest effectiveness
same,effective dose range of the drug in combination versus the drug alone (isobologram),[3],significantly lower
same,effect on bladder capacity,[4],no significant effect
"CCN(CC)CC#CCOC(=O)C(O)(c1ccccc1)C1CCCCC1 (stereo not drawn) [oxybutynin, 4-diethylaminio-2-butynyl phenylcyclohexyglycolate]",effectiveness of drug alone on bladder capacity,[3],modest effectiveness
same,effective dose range of the drug in combination versus the drug alone (isobologram),[3],significantly lower
